Assay results taken from patent US11116740B2, “Methods for use in support of planned supplement and food ingredient products for diagnosis and treatment of metabolic syndrome” (priority 2015, dated 2021).

Experiment: Serum fatty acid metabolomics (UPLC-MS/MS), feeding study
Method: This study examined global metabolic profiles in six dolphins (“Group A dolphins”). The dolphins lived in netted enclosures within San Diego Bay. The dolphins started on a 100% capelin diet. Group A dolphins were fed one-third of their daily diet in the morning after their routine overnight fast and 2h postprandial, in-water, and trained blood samples were drawn (typically near 10:00 a.m.). An additional four dolphins (“Group C dolphins”) were fed the capelin diet.
Two hour post-prandial samples were collected from the dolphins at baseline (week 0) and at four time points following the switch to the modified diet: 6, 12, 18, and 24 weeks. Routine monthly samples collected from four reference dolphins that were housed in the same environment as the Group A dolphins were assessed for glucose, triglycerides, ferritin, and percent serum fatty acids.
Sample Preparation: Samples were prepared using the automated MicroLab STAR® system from Hamilton Company. Several recovery standards were added prior to the first step in the extraction process for QC purposes. Proteins were precipitated with methanol under vigorous shaking for 2 min (Glen Mills GenoGrinder 2000) followed by centrifugation. The resulting extract was divided into five fractions: two for analysis by two separate reverse phase (RP)/UPLC-MS/MS methods with positive ion mode electrospray ionization (ESI), one for analysis by RP/UPLC-MS/MS with negative ion mode ESI, one for analysis by HILIC/UPLC-MS/MS with negative ion mode ESI, and one sample was reserved. Samples were placed briefly on a TurboVap® (Zymark) to remove the organic solvent. The sample extracts were stored overnight under nitrogen before preparation for analysis.
Ultrahigh Performance Liquid Chromatography-Tandem Mass Spectroscopy (UPLC-MS/[…]): Each of four methods utilized a Waters ACQUITY ultra-performance liquid chromatography (UPLC) and a Thermo Scientific Q-Exactive high resolution/accurate mass spectrometer interfaced with a heated electrospray ionization (HESI-II) source and Orbitrap mass analyzer operated at 35,000 mass resolution. A sample extract was dried, then reconstituted in solvents compatible to each of the four methods. Each reconstitution solvent contained a series of standards at fixed concentrations to ensure injection and chromatographic consistency. A first aliquot was analyzed using acidic positive ion conditions, chromatographically optimized for more hydrophilic compounds. In this method, the extract was gradient eluted from a C18 column (Waters UPLC BEH C18-2. 1×100 mm, 1.7 μm) using water and methanol, containing 0.05% perfluoropentanoic acid (PFPA) and 0.1% formic acid (FA). A second aliquot was also analyzed using acidic positive ion conditions, however it was chromatographically optimized for more hydrophobic compounds. In this method, the extract was gradient eluted from the same afore mentioned C18 column using methanol, acetonitrile, water, 0.05% PFPA and 0.01% FA and was operated at an overall higher organic content. A third aliquot was analyzed using basic negative ion optimized conditions using a separate dedicated C 18 column. The basic extracts were gradient eluted from the column using methanol and water, however with 6.5 mM Ammonium Bicarbonate at pH 8. […] The MS analysis alternated between MS and data-dependent MSn scans using dynamic exclusion. The scan range varied slighted between methods but covered 70-1000 m/z.
Data Extraction and Compound Identification: Raw data was extracted, peak-identified and QC processed using Metabolon's hardware and software. The systems were based on a web-service platform utilizing Microsoft's .NET technologies, which ran on high-performance application servers and fiber-channel storage arrays in clusters to provide active failover and load-balancing. Compounds were identified by comparison to library entries of purified standards or recurrent unknown entities.

[1] = Group A dolphins, modified diet, proportional to value at outset of study
[2] = bottlenose dolphin (Tursiops truncatus), in vivo, 6 weeks
[3] = bottlenose dolphin (Tursiops truncatus), in vivo, 12 weeks
[4] = bottlenose dolphin (Tursiops truncatus), in vivo, 18 weeks
[5] = bottlenose dolphin (Tursiops truncatus), in vivo, 24 weeks

serum concentration 6 wk / 0 wk (in vivo) | serum concentration 12 wk / 0 wk (in vivo) | serum concentration 18 wk / 0 wk (in vivo) | serum concentration 24 wk / 0 wk (in vivo) | Compound | other results
1.45 | 1.55 | 0.97 | 1.02 | CCCC/C=C\CCCCCCCC(=O)O [myristoleate (14:ln5), myristoleate] | –
1.01 | 1.27 | 1.42 | 0.97 | CCCCCCCCCCCCCCC(=O)O [pentadecanoate (15:0), pentadecanoate] | –
1.22 | 1.65 | 1.79 | 1.28 | CCCCCCCCCCCCCCCCCCC(=O)O [nonadecanoate (19:0), nonadecanoate] | –
– | 0.71 | 0.61 | 0.58 | CC/C=C\C/C=C\C/C=C\C/C=C\CCCCC(=O)O [stearidonate (18:4n3), stearidonate] | –
1.13 | 1.1 | 0.97 | 0.98 | linolenate | –
0.71 | 1.41 | 0.74 | 0.62 | CCCCCCCC/C=C\CCCCCCCCCCCCCC(=O)O [nervonate (24:ln9)*, nervonate] | –
0.98 | 1.04 | 0.84 | 0.64 | oleate/vaccenate [oleate/vaccenate (18:1)] | –
0.85 | 0.99 | 0.76 | 0.54 | CCCCCC/C=C\CCCCCCCC(=O)O [palmitoleate (16:ln7), palmitoleate] | –

Second part, the compound before the results:

Compound | serum concentration 6 wk / 0 wk (in vivo) | serum concentration 12 wk / 0 wk (in vivo) | serum concentration 18 wk / 0 wk (in vivo) | serum concentration 24 wk / 0 wk (in vivo) | other results
eicosenoate [eicosenoate (20:1)] | 0.72 | 0.81 | 0.72 | 0.43 | –
docosapentaenoate [docosapentaenoate (n3 DPA; 22:5n3)] | 1.13 | 1.37 | 1.27 | 0.78 | –
CCCCCCC(=O)O [heptanoate (7:0), heptanoate] | – | – | – | – | serum concentration 6 wk / 0 wk [1]: 1.42; serum concentration 12 wk / 0 wk [1]: 1.02; serum concentration 18 wk / 0 wk [1]: 1.23; serum concentration 24 wk / 0 wk [1]: 1.21
CC/C=C\C/C=C\C/C=C\C/C=C\C/C=C\CCCC(=O)O [eicosapentaenoate (EPA; 20:5n3), eicosapentaenoate] | – | – | – | – | serum concentration 6 wk / 0 wk [2]: 0.88; serum concentration 12 wk / 0 wk [3]: 0.99; serum concentration 18 wk / 0 wk [4]: 0.88; serum concentration 24 wk / 0 wk [5]: 0.57
CCCCC/C=C\C/C=C\C/C=C\C/C=C\C/C=C\CCC(=O)O [docosapentaenoate (n6 DPA; 22:5n6), all-cis-4,7,10,13,16-docosapentaenoic acid] | 1.68 | 2.5 | 2.33 | 2.09 | –
CCCCCCCCCCCCCC(=O)O [myristate (14:0), myristate] | – | – | – | – | serum concentration 6 wk / 0 wk [1]: 0.8; serum concentration 12 wk / 0 wk [1]: 0.87; serum concentration 18 wk / 0 wk [1]: 0.74; serum concentration 24 wk / 0 wk [1]: 0.58
CCCCC/C=C\C/C=C\CCCCCCCCCC(=O)O [dihomo-linoleate (20:2n6), dihomo-linoleate] | 0.9 | 1.12 | – | 0.73 | –
CCCCCCCC/C=C\CCCCCCCCCCCC(=O)O [erucate (22:ln9), erucate] | 0.71 | 0.81 | 0.68 | 0.45 | –
CCCCC/C=C\C/C=C\CCCCCCCC(=O)O [linoleate (18:2n6), linoleate] | – | – | – | – | serum concentration 6 wk / 0 wk [2]: 0.87; serum concentration 12 wk / 0 wk [3]: 0.93; serum concentration 18 wk / 0 wk [4]: 0.76; serum concentration 24 wk / 0 wk [5]: 0.66
CCCCCCCC(=O)O [caprylate (8:0), caprylate] | – | – | – | – | serum concentration 6 wk / 0 wk [1]: 1.1; serum concentration 12 wk / 0 wk [1]: 1.07; serum concentration 18 wk / 0 wk [1]: 0.96; serum concentration 24 wk / 0 wk [1]: 1.12
CCCCCC(=O)O [caproate (6:0), caproate] | – | – | – | – | serum concentration 6 wk / 0 wk [1]: 0.98; serum concentration 12 wk / 0 wk [1]: 1.01; serum concentration 18 wk / 0 wk [1]: 0.92; serum concentration 24 wk / 0 wk [1]: 0.76
CCCCCCCCC=CCCCCCCCCC(=O)O [10-nonadecenoate (19:ln9), 10-nonadecenoate] | 1.05 | 1.28 | 1.17 | 0.8 | –
CCCCCCCCC(=O)O [perlargonate (9:0), nonanoic acid] | – | – | – | – | serum concentration 6 wk / 0 wk [2]: 1.26; serum concentration 18 wk / 0 wk [4]: 1.56; serum concentration 24 wk / 0 wk [5]: 1.41
CCCCC/C=C\C/C=C\CCCCCCCCCCCC(=O)O [docosadienoate (22:2n6), docosadienoate] | 0.85 | 1.08 | 0.99 | 0.54 | –
CCCCC/C=C\C/C=C\C/C=C\C/C=C\CCCCCC(=O)O [adrenate (22:4n6), all-cis-7,10,13,16-docosatetraenoic acid] | 1.51 | 2.17 | 2.82 | 1.73 | –
CC/C=C\C/C=C\C/C=C\C/C=C\C/C=C\C/C=C\CCC(=O)O [docosahexaenoate (DHA; 22:6n3), docosahexaenoate] | – | – | – | – | serum concentration 6 wk / 0 wk [1]: 1.05; serum concentration 12 wk / 0 wk [1]: 1.23; serum concentration 18 wk / 0 wk [1]: 1.06; serum concentration 24 wk / 0 wk [1]: 0.74
CCCCCCC=CCCCC(=O)O [5-dodecenoate (12:ln7), 5-dodecenoate] | 1.49 | 1.67 | 1.08 | 1.11 | –
C=CCCCCCCCCC(=O)O [10-undecenoate (1 l:ln1), 10-undecenoate] | 1.41 | 1.54 | 1.22 | 1.75 | –
CC/C=C\C/C=C\C/C=C\CCCCCCCCCCCC(=O)O [docosatrienoate (22:3n3), docosatrienoate] | 1.08 | 2.06 | 1.96 | 1.06 | –
CCCCCCC=CCCCCCCCCC(=O)O [10-heptadecenoate (17:ln7), 10-heptadecenoate] | 1.12 | 1.38 | 1.35 | 0.87 | –
